Assay results reported in US20250195521A1 (Revolution Medicines, Inc., priority 2020, published 2025).

Key:
[1] = biological target: KRAS G12V binding to BRAF RBD (Homo sapiens (Human), UniProt P01116+P62937, G12V); assay: Ras-Raf disruption/FRET/MOA assay, KRAS G12V; type: biochemical; conditions: read-out: KRAS G12V FRET IC50
Description: (§1) Note—The following protocol describes a procedure for monitoring disruption of K-Ras G12C(GMP-PNP) binding to BRAF^RBD by a compound of the invention. This protocol may also be executed substituting other Ras proteins or nucleotides.
(§2) The purpose of this biochemical assay was to measure the ability of test compounds to facilitate ternary complex formation between a nucleotide-loaded K-Ras isoform and Cyclophilin A; the resulting ternary complex disrupts binding to a BRAF^RBD construct, inhibiting K-Ras signaling through a RAF effector. Data is reported as IC50 values.
(§3) Compound was present in plate wells as a 10-point 3-fold dilution series starting at a final concentration of 30 μM. After incubation at 25° C. for 3 hours, a mixture of Anti-His Eu—W1024 and anti-GST allophycocyanin was then added to assay sample wells at final concentrations of 10 nM and 50 nM, respectively, and the reaction incubated for an additional 1.5 hours. […] Compounds that facilitate disruption of a K-Ras: RAF complex were identified as those eliciting a decrease in the TR-FRET ratio relative to DMSO control wells.

[2] = tested on: NCI-H358 (K-Ras G12C); assay: CellTiter-Glo cell viability assay, NCI-H358; type: cell-based, human; conditions: Homo sapiens, NCI-H358, 120 h, 5-day treatment; read-out: H358 Cell Viability assay data (K-Ras G12C, IC50)
Summary of the method: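 NCI-H358 (K-Ras G12C) cells treated with compound dispensed directly into plates. CellTiter-Glo luminescence read on day 5 after ~30 min equilibration to room temperature. Signal normalised to DMSO average ×100, then fitted with a four-parameter logistic model.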

[3] = tested on: K-Ras G12C (NCI-H358 cells); assay: Potency assay: pERK in NCI-H358 cells; type: cell-based, human; conditions: Homo sapiens; NCI-H358 cells, 4 hours; read-out: pERK EC50 (H358 KRAS G12C)
Summary of the method: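 Cells plated the day before were exposed for 4 h at 37° C, 5% CO2 to a 10-point, 3-fold DMSO dilution series (10 mM top stock), in duplicate. Phospho-ERK was read by AlphaLISA SureFire Ultra or by In-Cell Western with DRAQ5 DNA stain, and IC50 came from a 4-parameter sigmoidal fit.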

[4] = biological target: KRAS WT binding to BRAF RBD (Homo sapiens (Human), UniProt P01116+P62937); assay: Ras-Raf disruption/FRET/MOA assay, KRAS WT; type: biochemical
Description: (§4) Disruption of B-Raf Ras-binding Domain (BRAF^RBD) Interaction with K-Ras by Compounds of the Invention (also called a FRET assay or an MOA assay)
as §1, §2
as §3, with “In assay buffer containing 25 mM HEPES pH 7.3, 0.002% Tween20, 0.1% BSA, 100 mM NaCl and 5 mM MgCl2, tagless Cyclophilin A, His6-K-Ras-GMPPNP, and GST-BRAF^RBD were combined in a 384-well assay plate at final concentrations of 25 μM, 12.5 nM and 50 nM, respectively. Compound was” for “Compound was”

[5] = tested on: NCI-H358 cells (K-Ras G12C); assay: CellTiter-Glo cell viability, NCI-H358; type: cell-based, human; conditions: Homo sapiens, NCI-H358, 120 h, K-Ras G12C, 5-day treatment; read-out: H358 Cell Viability IC50
Summary of the method: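 Compounds dispensed directly onto seeded cells; on day 5 plates equilibrated ~30 min to room temperature and luminescence read. Signal normalized to DMSO average (%) and fitted by four-parameter logistic.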

[6] = biological target: K-Ras G12C(GMP-PNP) binding to BRAF RBD (Homo sapiens (Human), UniProt P01116+P62937, G12C); assay: Disruption of BRAF RBD interaction with K-Ras (FRET / MOA assay), K-Ras G12C; type: biochemical; conditions: read-out: KRAS G12C FRET IC50
Summary of the method: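 Incubation of compound (up to 30 μM final, 3-fold steps) with GMP-PNP-type loaded Ras isoform, cyclophilin A and BRAF RBD ran 3 h at 25° C, followed by 1.5 h with detection antibodies. Disruption appears as a reduced TR-FRET ratio compared with DMSO controls, expressed as IC50.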

[7] = biological target: KRAS G12S binding to BRAF RBD (Homo sapiens (Human), UniProt P01116+P62937, G12S); assay: Ras-Raf disruption/FRET/MOA assay, KRAS G12S; type: biochemical
Description: as §1, §2, §3

[8] = biological target: KRAS G13D binding to BRAF RBD (Homo sapiens (Human), UniProt P01116+P62937, G13D); assay: Ras-Raf disruption/FRET/MOA assay, KRAS G13D; type: biochemical
Summary of the method: (§5)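 Cpd 10-pt 3-fold dilution, top 30 μM final; Ras/CypA/BRAF RBD mix 3 h, 25° C. Add anti-His Eu-W1024 10 nM + anti-GST APC 50 nM final, 1.5 h. Readout TR-FRET ratio decrease vs DMSO → IC50.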

[9] = biological target: NRAS Q61R binding to BRAF RBD (Homo sapiens (Human), UniProt P01111+P62937, Q61R); assay: Ras-Raf disruption/FRET/MOA assay, NRAS Q61R; type: biochemical
Description: as §4, §1, §2
as §3, with “In assay buffer containing 25 mM HEPES pH 7.3, 0.002% Tween20, 0.1% BSA, 100 mM NaCl and 5 mM MgCl2, tagless Cyclophilin A, His6-K-Ras-GMPPNP, and GST-BRAF^RBD were combined in a 384-well assay plate at final concentrations of 25 μM, 12.5 nM and 50 nM, respectively. Compound was” for “Compound was”

[10] = biological target: NRAS G12C binding to BRAF RBD (Homo sapiens (Human), UniProt P01111+P62937, G12C); assay: Ras-Raf disruption/FRET/MOA assay, NRAS G12C; type: biochemical
Summary of the method: as §5

[11] = biological target: NRAS Q61K binding to BRAF RBD (Homo sapiens (Human), UniProt P01111+P62937, Q61K); assay: Ras-Raf disruption/FRET/MOA assay, NRAS Q61K; type: biochemical
Description: as §4, §1, §2
as §3, with “In assay buffer containing 25 mM HEPES pH 7.3, 0.002% Tween20, 0.1% BSA, 100 mM NaCl and 5 mM MgCl2, tagless Cyclophilin A, His6-K-Ras-GMPPNP, and GST-BRAF^RBD were combined in a 384-well assay plate at final concentrations of 25 μM, 12.5 nM and 50 nM, respectively. Compound was” for “Compound was”

[12] = biological target: KRAS Q61H binding to BRAF RBD (Homo sapiens (Human), UniProt P01116+P62937, Q61H); assay: Ras-Raf disruption/FRET/MOA assay, KRAS Q61H; type: biochemical
Description: as §4, §1, §2
as §3, with “In assay buffer containing 25 mM HEPES pH 7.3, 0.002% Tween20, 0.1% BSA, 100 mM NaCl and 5 mM MgCl2, tagless Cyclophilin A, His6-K-Ras-GMPPNP, and GST-BRAF^RBD were combined in a 384-well assay plate at final concentrations of 25 μM, 12.5 nM and 50 nM, respectively. Compound was” for “Compound was”

[13] = biological target: NRAS WT binding to BRAF RBD (Homo sapiens (Human), UniProt P01111+P62937); assay: Ras-Raf disruption/FRET/MOA assay, NRAS WT; type: biochemical
Description: as §4, §1, §2
as §3, with “In assay buffer containing 25 mM HEPES pH 7.3, 0.002% Tween20, 0.1% BSA, 100 mM NaCl and 5 mM MgCl2, tagless Cyclophilin A, His6-K-Ras-GMPPNP, and GST-BRAF^RBD were combined in a 384-well assay plate at final concentrations of 25 μM, 12.5 nM and 50 nM, respectively. Compound was” for “Compound was”

K-Ras G12C(GMP-PNP) binding to BRAF RBD, sequence (P01116 other isoform, or with tags, fused parts or gaps G12C): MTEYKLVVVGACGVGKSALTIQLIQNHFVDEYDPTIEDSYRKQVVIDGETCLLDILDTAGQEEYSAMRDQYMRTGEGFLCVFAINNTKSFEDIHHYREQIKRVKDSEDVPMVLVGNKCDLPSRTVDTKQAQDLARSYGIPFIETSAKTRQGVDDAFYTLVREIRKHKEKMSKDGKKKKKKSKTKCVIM
K-Ras G12C(GMP-PNP) binding to BRAF RBD, sequence (P62937 whole entry, canonical isoform): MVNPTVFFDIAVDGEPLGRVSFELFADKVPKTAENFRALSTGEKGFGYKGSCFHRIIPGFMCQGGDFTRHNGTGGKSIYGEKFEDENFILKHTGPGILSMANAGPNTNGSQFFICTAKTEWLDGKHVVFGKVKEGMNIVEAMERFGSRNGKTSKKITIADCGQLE
KRAS G13D binding to BRAF RBD, sequence (P01116 other isoform, or with tags, fused parts or gaps G13D): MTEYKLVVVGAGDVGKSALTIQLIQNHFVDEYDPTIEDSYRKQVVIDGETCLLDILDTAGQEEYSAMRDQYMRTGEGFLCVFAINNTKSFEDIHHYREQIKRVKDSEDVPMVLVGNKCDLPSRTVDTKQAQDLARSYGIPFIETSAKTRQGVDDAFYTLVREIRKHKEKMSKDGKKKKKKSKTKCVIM
KRAS G13D binding to BRAF RBD, sequence (P62937 whole entry): as the sequence (P62937 whole entry, canonical isoform) above
NRAS Q61K binding to BRAF RBD, sequence (P01111 whole entry Q61K): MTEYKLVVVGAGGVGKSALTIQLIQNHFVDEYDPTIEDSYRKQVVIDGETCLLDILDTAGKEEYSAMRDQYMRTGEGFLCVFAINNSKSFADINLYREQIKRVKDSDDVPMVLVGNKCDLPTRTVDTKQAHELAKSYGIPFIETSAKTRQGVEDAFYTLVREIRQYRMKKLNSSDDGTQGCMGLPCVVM
NRAS Q61K binding to BRAF RBD, sequence (P62937 whole entry): as the sequence (P62937 whole entry, canonical isoform) above
NRAS Q61R binding to BRAF RBD, sequence (P01111 whole entry Q61R): as the sequence (P01111 whole entry Q61K) above, with K61R counted along it
NRAS Q61R binding to BRAF RBD, sequence (P62937 whole entry): as the sequence (P62937 whole entry, canonical isoform) above
NRAS G12C binding to BRAF RBD, sequence (P01111 whole entry G12C): as the sequence (P01111 whole entry Q61K) above, with G12C, K61Q counted along it
NRAS G12C binding to BRAF RBD, sequence (P62937 whole entry): as the sequence (P62937 whole entry, canonical isoform) above
NRAS WT binding to BRAF RBD, sequence (P01111 whole entry): as the sequence (P01111 whole entry Q61K) above, with K61Q counted along it
NRAS WT binding to BRAF RBD, sequence (P62937 whole entry): as the sequence (P62937 whole entry, canonical isoform) above
KRAS Q61H binding to BRAF RBD, sequence (P01116 other isoform, or with tags, fused parts or gaps Q61H): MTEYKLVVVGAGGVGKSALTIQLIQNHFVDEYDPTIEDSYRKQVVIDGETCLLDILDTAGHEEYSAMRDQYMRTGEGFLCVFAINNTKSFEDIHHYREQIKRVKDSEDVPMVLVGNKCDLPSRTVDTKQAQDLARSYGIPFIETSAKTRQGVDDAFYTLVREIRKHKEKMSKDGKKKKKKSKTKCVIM
KRAS Q61H binding to BRAF RBD, sequence (P62937 whole entry): as the sequence (P62937 whole entry, canonical isoform) above
KRAS G12S binding to BRAF RBD, sequence (P01116 other isoform, or with tags, fused parts or gaps G12S): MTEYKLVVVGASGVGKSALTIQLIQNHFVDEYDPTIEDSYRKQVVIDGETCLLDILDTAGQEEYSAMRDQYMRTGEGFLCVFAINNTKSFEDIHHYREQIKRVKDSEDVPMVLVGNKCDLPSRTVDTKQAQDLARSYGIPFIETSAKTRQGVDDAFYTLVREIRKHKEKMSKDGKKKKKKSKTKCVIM
KRAS G12S binding to BRAF RBD, sequence (P62937 whole entry): as the sequence (P62937 whole entry, canonical isoform) above
KRAS G12V binding to BRAF RBD, sequence (P01116 other isoform, or with tags, fused parts or gaps G12V): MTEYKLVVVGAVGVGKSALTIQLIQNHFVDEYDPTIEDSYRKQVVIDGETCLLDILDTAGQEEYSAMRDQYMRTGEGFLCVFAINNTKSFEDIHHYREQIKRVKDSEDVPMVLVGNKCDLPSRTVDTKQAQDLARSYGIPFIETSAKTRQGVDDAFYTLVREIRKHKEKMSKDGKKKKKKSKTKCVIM
KRAS G12V binding to BRAF RBD, sequence (P62937 whole entry): as the sequence (P62937 whole entry, canonical isoform) above
KRAS WT binding to BRAF RBD, sequence (P01116 other isoform, or with tags, fused parts or gaps): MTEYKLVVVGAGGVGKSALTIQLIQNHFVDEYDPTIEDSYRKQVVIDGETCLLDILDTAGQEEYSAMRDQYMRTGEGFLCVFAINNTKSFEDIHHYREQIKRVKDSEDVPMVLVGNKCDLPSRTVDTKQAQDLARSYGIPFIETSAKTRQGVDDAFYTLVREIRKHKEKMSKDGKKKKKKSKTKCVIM
KRAS WT binding to BRAF RBD, sequence (P62937 whole entry, the tested form may be a part): as the sequence (P62937 whole entry, canonical isoform) above

Row | IC50 [1] [nM] | IC50 [2] [nM] | EC50 [3] [nM] | IC50 [4] [nM] | IC50 [5] [nM] | IC50 [6] [nM] | IC50 [7] [nM] | IC50 [8] [nM] | IC50 [9] [nM] | IC50 [10] [nM] | IC50 [11] [nM] | IC50 [12] [nM] | IC50 [13] [nM] | Compound
1 | 10 to 100 | < 10 | < 5000 | 10 to 100 | 10 to 100 | 10 to 100 | 10 to 100 |  |  |  |  |  |  | CCn1c(-c2cccnc2[C@H](C)OC)c2c3cc(ccc31)-c1csc(n1)C[C@H](NC(=O)[C@H](C(C)C)N(C)C(=O)N1CCCC[C@@H](N(C)C)C1)C(=O)N1CCC[C@H](N1)C(=O)OCC(C)(C)C2 [Compound A492]
2 |  | 10 to 100 | < 5000 |  |  | 10 to 100 |  | 100 to 1000 | 100 to 1000 | 10 to 100 | 10 to 100 | 10 to 100 | 100 to 1000 | CCn1c(-c2cccnc2[C@H](C)OC)c2c3cc(ccc31)-c1csc(n1)C[C@H](NC(=O)[C@H](C(C)C)N(C)C(=O)C1CCN(C(=O)/C=C/CN(C)C)C3(CC3)C1)C(=O)N1CCC[C@H](N1)C(=O)OCC(C)(C)C2 (stereo partly shown) [Compound A701]
3 |  | 10 to 100 | < 5000 |  |  | 10 to 100 |  | 100 to 1000 | 100 to 1000 | 10 to 100 | 10 to 100 | 10 to 100 | 10 to 100 | CCn1c(-c2cccnc2[C@H](C)OC)c2c3cc(ccc31)-c1csc(n1)C[C@H](NC(=O)[C@H](C(C)C)N(C)C(=O)C1CCN(C(=O)/C=C/CN(C)C)C[C@@H]1C)C(=O)N1CCC[C@H](N1)C(=O)OCC(C)(C)C2 (stereo partly shown) [Compound A709]
4 |  | < 10 | < 5000 |  |  | < 10 |  | 1000 to 10000 | > 10000 | 10 to 100 | > 10000 | 1000 to 10000 | 1000 to 10000 | CCn1c(-c2cccnc2[C@H](C)OC)c2c3cc(ccc31)N1CCO[C@@H](C[C@H](NC(=O)[C@H](C(C)C)N(C)C(=O)[C@@]3(F)CCN(C(=O)C#CC(C)(C)N4CCC4)C3)C(=O)N3CCC[C@H](N3)C(=O)OCC(C)(C)C2)C1 [Compound A726]
